Reference: publication PMC12040169 (PLOS Biology, 2025)

experiment: in vitro; conditions: human, hela cells, % viability

Row | Structure (SMILES) | viability at 28.5 h, 10 µM
1 | Cc1cccc(C2(CNC(=O)C3COCCO3)CCCCC2)c1 (stereo not drawn) [CBK305087] | 109%
2 | Cc1cccnc1C(c1ccccc1)N(C)C(=O)C1CCN(C(=O)OCc2ccccc2)CC1 (stereo not drawn) [CBK060522] | 93.9%
3 | O=C(NC(N1CCCCC1)C(Cl)(Cl)Cl)c1ccc(Cl)cc1Cl (stereo not drawn) [CBK261024] | 91.6%
4 | COc1ccc(S(=O)(=O)N(C)CC(=O)N2CCN(C)CC2)cc1C [CBK268105] | 100%
5 | O=C(O)c1ccc(NC(=O)c2nccnc2C(=O)O)cc1 [CBK260916] | 97.7%
6 | Cc1noc(C)c1C(=O)N1CCN(c2ccccc2)CC1 [CBK200165] | 97.8%
7 | CC(C)NC(=O)N1CCN(Cc2nc(-c3ccoc3)no2)CC1 [CBK306248] | 88.2%
8 | O=C(O)CCn1c2ccc(Br)cc2c2cc(Br)ccc21 [CBK262551] | 83.9%
9 | O=C(COc1cccc2ccccc12)Nc1ccc(O)cc1 [CBK266002] | 88.6%
10 | Oc1ccc(/C=N/Nc2nncc(-c3ccccc3)n2)c(O)c1O [CBK262492] | 80.6%
11 | CN(C)C(=O)c1ccc(Cn2nc(C(=O)NCCOc3ccccc3)c3ccccc32)cc1 [CBK047700] | 91.7%
12 | CCN(CC)CCN(Cc1ccc2c(c1)OCO2)C(=O)Nc1ccc2[nH]ccc2c1 [CBK159037] | 96.7%
13 | CCc1nc2ccc(C(=O)Nc3ccc(NC(C)=O)cc3)cn2c1N(CC)Cc1ccc(OC)c(OC)c1 [CBK146994] | 97.8%
14 | CC(=O)c1sc(NC(=O)c2ccc(Br)o2)nc1C [CBK057948] | 91.6%
15 | O=C(N/N=C/c1ccc(O)cc1)c1c[nH]c2ccccc12 [CBK262193] | 91.4%
16 | COCc1ccc(-c2nccnc2NS(C)(=O)=O)cc1 [CBK049631] | 101%
17 | COc1ccc(NC(=O)CSc2nnc(N)s2)cc1 [CBK058635] | 104%
18 | CC(=O)N1CCC[C@H]2NC(=O)CNC(=O)C3(C/C=C/C[C@H]21)CCN(Cc1cc[nH]n1)CC3 [CBK292164] | 103%
19 | O=C1CCCCCN1CP(=O)(O)CCc1ccccc1 [CBK262313] | 99.7%
20 | COc1cc(/C=C(\C#N)c2nn(-c3ccccc3)c(N)c2C#N)ccc1Oc1ccc(C(F)(F)F)cc1[N+](=O)[O-] [CBK262484] | 92.7%
21 | COc1ccc(Nc2ccc(-c3cccc(OC(F)(F)F)c3)cn2)cn1 [CBK037022] | 100%
22 | Nc1ncc(-c2occc2C=O)nc1-c1ccc(F)c(Cl)c1 [CBK064005] | 101%

Row | Structure (SMILES) | viability at 28.5 h, 10 µM
23 | CC(C)(C)C1=CC2=NC3(CCCCCC3)[C@@H]3C[C@@H](O)[C@@H](O)[C@@H]3N2O1 [CBK303252] | 91.9%
24 | CC(C)NC(=O)NC[C@H]1C[C@@H]2CCN1C[C@@H]2c1cc(C2CCCC2)nn1C [CBK288744] | 96.5%
25 | COc1ccc([C@@]23CC[C@H](NC(=O)c4[nH]cnc4C)C[C@@H]2N(C)CC3)cc1OC [CBK038097] | 118%
26 | CC(C)n1cc(C(=O)N2CCCC2c2nc3ccccc3[nH]2)cn1 (stereo not drawn) [CBK284667] | 108%
27 | Cc1cnc2c(N3CCCC3)nc(-c3cccnc3)cn12 [CBK092277] | 98.5%
28 | Nc1ncc(-c2cccc3cccnc23)nc1NC1CCCCC1 [CBK063613] | 107%
29 | COc1ccc(C(NC(=O)C2CCN(C(=O)OCc3ccccc3)CC2)c2ccccc2C)cn1 (stereo not drawn) [CBK059726] | 91.4%
30 | CCN1C(=O)CC2(C1=O)C(=O)N(Cc1nnc(-c3ccc(C)cc3)o1)c1ccc(OC)cc12 (stereo not drawn) [CBK075586] | 90.4%
31 | Cc1ccc(S(=O)(=O)N2CCOCC2)cc1C(=O)O [CBK262256] | 115%
32 | CCn1cc(CN2CCCN(C(=O)c3cc(C4CC4)on3)CC2)cn1 [CBK305401] | 88.1%
33 | Cc1cnn(CC2CC2)c1NC(=O)Cc1csc(N2CCCC2=O)n1 [CBK304940] | 92.4%
34 | Cc1cc(NC(=O)C2COc3ccccc3O2)c2ccccc2n1 (stereo not drawn) [CBK115871] | 91.6%
35 | Cc1ccc(C(CC(=O)O)NC(=O)c2ccc(C)c(S(=O)(=O)N3CCCCC3)c2)cc1 (stereo not drawn) [CBK297095] | 82.7%
36 | O=[N+]([O-])c1ccc2c(c1)C(O)n1nc(-c3ccncc3)nc1S2 (stereo not drawn) [CBK288533] | 94.7%
37 | COCCNC(=O)c1cc(C2CC2)nc2c1cnn2C(C)C [CBK306099] | 101%
38 | O=S(=O)(NCc1cccc(Cl)c1)c1csc2ccnc(N3CCNCC3)c12 [CBK045595C] | 88.6%
39 | CC(C)[C@@H](Cn1nc(C2CC2)ccc1=O)NC(=O)c1ccco1 [CBK282321] | 88.3%
40 | COc1cnc(-c2cnn(C)c2)c(NC(=O)c2cc(C)oc2C)n1 [CBK145218] | 93.2%
41 | O=C(CSc1oc(-c2ccco2)nc1S(=O)(=O)c1ccccc1)c1ccccc1 [CBK268424] | 96.9%
42 | CSCCN(CC(=O)O)Cc1ccccc1 [CBK005712] | 91.1%
43 | CCN(CC(=O)NCc1ccc(F)cc1)S(=O)(=O)c1c(C)n[nH]c1C [CBK306074] | 93.3%
44 | C#CCn1c(=O)n(C)n(C)c1=O [CBK023151] | 89.4%

Row | Structure (SMILES) | viability at 28.5 h, 10 µM
45 | CCCc1nc(SC)ncc1C(=O)NCc1ccccn1 [CBK291190] | 108%
46 | COc1ccc(NC(=O)c2cc(-c3cccc(Cl)c3)nc3ccccc23)c([N+](=O)[O-])c1 [CBK267777] | 86.7%
47 | Cc1ccc(Oc2ccc(C(F)(F)F)cc2[N+](=O)[O-])c(Br)c1 [CBK002817] | 93.1%
48 | O=C(Nc1ccc2n(c1=O)C[C@H]1C[C@@H]2CN(C(=O)Nc2ccc(F)cc2)C1)c1ccco1 [CBK289205] | 85.4%
49 | CCCNc1nc(Cl)nc(NC(C)(C)C)n1 [CBK091674] | 86.3%
50 | Cc1c(C=Cc2cc(C(=O)O)c3ccccc3n2)cc(C#N)n1C [CBK295604] | 104%
51 | Cc1cc(NC(=O)c2cc3ccccc3o2)nc2c1c(=O)oc1ccccc12 [CBK291256] | 90.2%
52 | CC(OC(=O)c1ccc2c(c1)C(=O)N(c1ccc([N+](=O)[O-])cc1)C2=O)C(=O)c1ccccc1 (stereo not drawn) [CBK157061] | 94.3%
53 | O=C(CNS(=O)(=O)c1cc(Br)c(Cl)s1)N1CCOCC1 [CBK034474] | 100%
54 | COc1ccc(N2CCN(CC(O)c3c[nH]c4cc(OC)ccc34)CC2)cc1 (stereo not drawn) [CBK286355] | 96.1%
55 | O=C(NCc1cccs1)c1cnoc1-c1ccc([N+](=O)[O-])cc1 [CBK153845] | 82.9%
56 | COCCC(=O)NC(Cc1ccsc1)c1nc(C)c(C)s1 (stereo not drawn) [CBK284774] | 84.7%
57 | O=C(CCC1COc2ccccc2O1)N1CCN(Cc2ccccc2)CC1 (stereo not drawn) [CBK269767] | 93.7%
58 | CCCc1ccc(S(=O)(=O)Nc2ccc(C(=O)N3CCN(C)CC3)cc2)cc1 [CBK034547] | 90.1%
59 | Cc1ccc2[nH]c(SC(C)C(=O)N3CCOCC3)nc2c1 (stereo not drawn) [CBK306187] | 96%
60 | O=C(NCCCNC1CCc2[nH]c3ccccc3c2C1)c1cccc(Br)c1 (stereo not drawn) [CBK107130T] | 86.9%
61 | C=CCn1c(SCC(=O)Nc2cc(Cl)ccc2C)nnc1-c1ccccc1O [CBK266867] | 94.5%
62 | COC(=O)C1(Cc2cc(-c3ccc(F)cc3)no2)CCOCC1 [CBK285329] | 79.3%
63 | O=C(O)C1(Oc2ccc3ccccc3c2)CCN(C2CCNCC2)CC1 [CBK306615] | 108%
64 | CCCCOc1ccc(-c2nnn(C(C)C(=O)OCC)n2)cc1 (stereo not drawn) [CBK068558] | 88.6%
65 | Cc1cc(=O)c2ccccc2n1CC(=O)N1CCC2(CCOCC2)CC1 [CBK306869] | 94.7%
66 | O=C(c1ccc2c(c1)C(=O)N(c1ccncc1)C2=O)c1ccc2c(c1)C(=O)N(c1ccncc1)C2=O [CBK261194] | 88.5%

Row | Structure (SMILES) | viability at 28.5 h, 10 µM
67 | O=[N+]([O-])c1ccccc1N/C(=N/S(=O)(=O)c1ccccc1)c1ccccc1 [CBK262336] | 85.8%
68 | NS(=O)(=O)c1ccc(NC(=O)c2ccc3ccccc3c2)cc1 [CBK264338] | 112%
69 | COc1cccc(CN(Cc2ncc[nH]2)Cc2ccco2)c1 [CBK282496] | 98.7%
70 | COc1cc(N)c(Cl)cc1C(=O)OCc1cc2ccc(C)cc2nc1Cl [CBK296755] | 89.7%
71 | CC1CCC(N(Cc2nnc(C3CCC3)n2C)CC2CCCO2)CC1 (stereo not drawn) [CBK305540] | 97.3%
72 | O=C(NCC1CCOC1)c1ccc(-c2ccccc2CO)cc1 (stereo not drawn) [CBK306616] | 107%
73 | CCOC(=O)N1CCC(NC(=O)N2CCN(C3CCN(C)CC3)CC2)CC1 [CBK156113] | 92.2%
74 | Cc1cc(-c2ccc([N+](=O)[O-])cc2)nc2ccc3ccccc3c12 [CBK263253C] | 90.3%
75 | NS(=O)(=O)c1ccc(NCc2ccccc2OCc2ccccc2F)cc1 [CBK268935] | 91.8%
76 | CNC(=O)c1sc2ccccc2c1C1CCN(Cc2cnn(-c3ccc(F)cc3)c2)C1 (stereo not drawn) [CBK285882] | 84.1%
77 | CCOc1ccc(-c2nc(CSc3n[nH]c(=O)n3Cc3ccccc3)cs2)cc1 [CBK296737] | 102%
78 | CCOc1cc(O)c(-c2nc(N)ncc2-c2ccc3c(c2)OCCO3)cc1CC [CBK288174] | 94.7%
79 | Nc1ncc(-c2cccc(OC(F)(F)F)c2)nc1-c1ccc(F)c(Cl)c1 [CBK064021] | 113%
80 | O=C(NCCc1cccs1)NCc1cc(F)ccc1F [CBK045363] | 97.1%
81 | CN1CCN(C(C(=O)O)c2c[nH]c3cc(OCc4ccccc4)ccc23)CC1 (stereo not drawn) [CBK286654] | 84.6%
82 | Cn1c(NC(=O)COc2ccccc2)nc2ccccc21 [CBK269783] | 98.7%
83 | COc1ccc(C(C)C)cc1-c1nc(NS(C)(=O)=O)cc2ccccc12 [CBK073779] | 94.2%
84 | O=C(C1=C(O)C(=O)N(CCCn2ccnc2)C1c1cccs1)c1ccc2c(c1)OCCO2 (stereo not drawn) [CBK266170] | 92%
85 | FC(F)(F)c1ccnc(OCc2cccnc2)c1 [CBK115784] | 99.6%
86 | Cc1ccc(SCCNS(C)(=O)=O)cc1 [CBK026280] | 90.8%

same assay, conditions: human, hela cells, % viability, bulk resorufin, single well

Row | Structure (SMILES) | viability at 28.5 h, 10 µM
87 | COc1ccc2c(c1)COC1(CCN(C(=O)Nc3cccs3)CC1)O2 [CBK060803] | 105%
